Results on two molecules are retold here after US20040024038A1, “GABA enhancers in the treatment of diseases relating to reduced neurosteroid activity” (H. Lundbeck A/S, priority 2000, published 2004).

The structures appear in SMILES notation. Entries after “also recorded” stand apart in the source; their conditions may differ.

For assay [1], the system named is hippocampal cells. To be noted: hippocampal cells after progesterone withdrawal; previous work; cited from earlier work.
The subject of assay [2] is Female mice. Kind of assay: Elevated plus maze in progesterone withdrawal (PWD) model of PMS. To be noted: for Time Open Arm, Mean / Grid Cross, Mean (number of total grid crosses, general locomotor activity) / Time Outside Rail, Mean: THIP 1.25 mg/kg; for Time Open Arm, Mean: tested 40 minutes after injection, 10 min plus maze; for Grid Cross, Mean (number of total grid crosses, general locomotor activity) / Time Outside Rail, Mean: 40 minutes after injection. Type of assay: in vivo. The method, then:
The described model is a hormone withdrawal model of PMS in the rat, based on the prevailing hypothesis that dysphoric mood is predominantly associated with declining hormone levels (i.e., “hormone withdrawal”) in women with PMS.
Female mice (Charles River) were housed in pairs under a 14 hour light and 10 hour dark cycle with food and water ad libitum. All animals were tested during the light portion of the circadian cycle. In female mice, estrous cycle stage was determined by microscopic examination of the vaginal lavage, as described previously (Smith, 1987) and by measures of vaginal impedance (Bartlewski, 1999; Bartos, 1977; Koto, 1987; Koto, 1987) throughout one entire cycle prior to testing. Only females in diestrous were used as subjects.
Progesterone implants were made from silicone tubing (Nalgene Co, 1/16″i.d×1/8″ o.d.) which was cut to size depending on the body weight of the animal (10 mm tubing per 100 g), filled with crystalline progesterone and sealed with silastic medical adhesive (Dow Corning). The sealed capsules were incubated overnight in a solution containing 1% gelatine and 0.9% saline in a water bath (37° C.) with gentle shaking overnight. Sham implants are empty sealed tubes of the same dimensions. Rats were then anesthestized with 2% halothane (2-bromo-2-chloro-1,1,1-trifluroethane) in oxygen and the capsules implanted subcutaneously in the abdomen. Removal of the implants also occurred under the same regime of halothane anesthesia, and implanted s.c. under anesthesia in the abdominal area of the rat (Smith, 1998; Moran, 1998) for 21 days.
Control animals were implanted exactly the same way with empty (sham) silicone capsules. Animals were either sacrificed or tested 24 hrs after removal of the implant (P withdrawal).
On the day of testing, animals were injected with either THIP (1.25 mg/kg) or saline and tested 40 minutes after the injection.
Mice were tested on the plus maze, elevated 50 cm above the floor, in a room with low, indirect incandescent lighting and low noise levels. The plus maze consists of 2 enclosed arms (50×10×40 cm) and 2 open arms (50×10 cm) and is explained in detail in (Pellow, 1985).
The floor of all four arms was marked with grid lines every 25 cm. On the day of testing, each mouse was placed in the testing room for 30-40 minutes prior to testing in order to acclimatise to the situations. At the time of testing, each animal was tested for 10 minutes after exiting a start box in the centre platform of the plus maze. To be considered as an entry into any arm, the mouse must pass the line of the open platform with all four paws. The duration (in seconds) of time spent in the open arm was recorded from the time of entry into the open arm. Decreased time spent in the open arm generally indicates higher levels of anxiety (Pellow, 1985). Other behavioural measures recorded included the duration of time spent (in seconds) beyond the rail. The amount of time that subjects spend in the open portion of the plus maze in the absence of rails is considered to be more sensitive to anxiolytic agents (i.e. agents that would increase the amount of time spent in the open arm) than the amount of time spent in the open arms with rails (Fernandes, 1996). In order to measure general locomotor activity, the number of total grid crosses was counted. Lastly, the duration of time (in sec) spent grooming was also scored. The experimenter was blind to all conditions, and animals were tested in a randomised block design.
Data from the plus maze were analysed in a 2-way ANOVA (implant condition×injection condition) followed by a post-hoc ANOVA and post hoc t-test.

Where [3] appears, read: female control (sham implant) mice.

As for `O=C1Nc2ccc(Cl)cc2C(c2ccccc2Cl)=NC1O` (centres unmarked) [lorazepam], the “Sensitivity of hippocampal cells to the GABA-potentiating effect” value in assay [1] is reported as “striking insensitivity”.

Take `Oc1noc2c1CCNC2` [THIP, THIP (Gaboxadol)]: the “Reversal of the PWD effect in the plus maze” value in assay [2] (PWD mice, dose of 1.25 mg/kg, 1.25 mg/kg) is given as “completely reversed the PWD effect; also recorded: counteract the PWD completely”. Moreover, the “Time Open Arm, Mean” value in assay [2] (female PWD mice (24 hrs after removal of progesterone implant)) is 157.023 s. Moreover, in assay [2] (female PWD mice), the “Grid Cross, Mean (number of total grid crosses, general locomotor activity)” value turned out to be 83.333 and the “Time Outside Rail, Mean” value was 29.503 s. In assay [2] (setting [3]), the “Grid Cross, Mean (number of total grid crosses, general locomotor activity)” value turned out to be 52.000; the “Time Outside Rail, Mean” value amounted to 10.060 s; the “Time Open Arm, Mean” value is 38.377 s.
